Laboratory results as given in patent US20230278972A1, “SUBSTITUTED HALOALKYL SULFONANILIDE HERBICIDES” (FMC Corporation, priority 2020, published 2023).

Key:
Type in all cases: in vivo
[1] = test system: blackgrass (Alopecurus myosuroides); experiment: Test A1 postemergence, blackgrass; details: Postemergence, 0 to 100 scale (0 no effect, 100 complete control)
Outline: (§1)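 Both timings started from seed in a loam-sand blend. Preemergence pots got a directed soil application immediately; postemergence pots were sprayed when seedlings had one or two leaves and stood 2–10 cm. Each compound was prepared in a non-phytotoxic solvent plus surfactant.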

[2] = test system: Foxtail, Giant (giant foxtail, Setaria faberi); experiment: Test A1 preemergence, Foxtail, Giant
Outline: (§2)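 Pre: seeds in loam/sand blend, directed soil spray. Post: potted plants, same soil, 2–10 cm, 1–2 leaf stage. Chemicals in non-phytotoxic solvent + surfactant for both.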

[3] = test system: galium (catchweed bedstraw, Galium aparine); experiment: Test A1 postemergence, galium; details: for Plant response rating, Galium: Postemergence
Outline: as §1

[4] = test system: Foxtail, Giant (giant foxtail, Setaria faberi); experiment: Test A1 postemergence, Foxtail, Giant; details: for Plant response rating, Foxtail, Giant: Postemergence
Outline: as §1

[5] = test system: Ryegrass, Italian (Italian ryegrass, Lolium multiflorum); experiment: Test A1 preemergence, Ryegrass, Italian
Outline: as §2

[6] = test system: ragweed (common ragweed, Ambrosia artemisiifolia); experiment: Test A1 preemergence, ragweed
Outline: as §2

corn (Zea mays) = experiment: Test A1 preemergence, corn
Outline: as §2

[7] = test system: goosegrass (Eleusine indica); experiment: Test A1 postemergence, goosegrass; details: for Plant response rating, Goosegrass: Postemergence
Outline: as §1

[8] = 31 g ai/ha, 0 to 100 scale (0 no effect, 100 complete control)
[9] = 125 g ai/ha, 0 to 100 scale, 0 no effect, 100 complete control
[10] = 31 g ai/ha, postemergence, 0 to 100 scale (0 no effect, 100 complete control)
[11] = 31 g ai/ha, 0 to 100 scale (0 no effect, 100 complete control), 10 days

| SMILES | Plant response rating, Blackgrass ([1]; 31 g ai/ha, 10 days) | Plant response rating, Blackgrass ([1]; 125 g ai/ha) | Plant response rating, Foxtail, Giant [2, 8] | Plant response rating, Foxtail, Giant [2, 9] | Galium plant response rating [3, 10] | Plant response rating, Galium ([3]; 125 g ai/ha, 0 to 100 scale) | Foxtail, Giant plant response rating [4, 10] | Plant response rating, Foxtail, Giant ([4]; 125 g ai/ha, 0 to 100 scale) | Plant response rating, Ryegrass, Italian [5, 8] | Plant response rating, Ryegrass, Italian [5, 9] | Plant response rating, Ragweed [6, 8] | Plant response rating, Ragweed [6, 9] | Plant response rating, Corn (corn (Zea mays); [8]) | Plant response rating, Corn (corn (Zea mays); [9]) | Goosegrass plant response rating [7, 10] | Plant response rating, Goosegrass ([7]; 125 g ai/ha, 0 to 100 scale) | Plant response rating, Galium [3, 11] | Plant response rating, Foxtail, Giant [4, 11] | Plant response rating, Goosegrass [7, 11] |
| --- | --- | --- | --- | --- | --- | --- | --- | --- | --- | --- | --- | --- | --- | --- | --- | --- | --- | --- | --- |
| CCC1CC(c2cc(NS(=O)(=O)C(F)(F)F)c(C)cc2C)=NO1 (stereo not drawn) [Compound 375] | 0 | 0 | 10 | 90 | 10 | 20 | 0 | 10 | 30 | 80 | 0 | 20 | 0 | 70 | 50 | 90 |  |  |  |
| COC1CCCN(C(=O)c2cc(NS(=O)(=O)C(F)(F)F)c(Cl)c(F)c2C)C1 (stereo not drawn) [Compound 334] | 0 | 0 | 40 | 70 |  | 60 |  | 0 | 30 | 50 | 0 | 50 | 0 | 0 |  | 0 | 60 | 0 | 0 |
| Cc1cc(C(F)(F)F)c(C2=NOC3CCCC23)cc1NS(=O)(=O)C(F)(F)F (stereo not drawn) [Compound 306] | 0 | 0 | 0 | 20 |  | 80 |  | 30 | 0 | 80 | 0 | 10 | 0 | 0 |  | 80 | 60 | 0 | 0 |
| CCC1ON=C(c2cc(NS(=O)(=O)C(F)(F)F)c(C)cc2C)C1CC (stereo not drawn) [Compound 343] | 10 | 30 | 90 | 100 |  | 100 |  | 30 | 60 | 100 | 10 | 60 | 10 | 60 |  | 90 | 70 | 0 | 40 |
| Cc1cc(C)c(C2=NOC3CCCCCC23)cc1NS(=O)(=O)C(F)(F)F (stereo not drawn) [Compound 292] | 0 | 0 | 50 | 100 |  | 80 |  | 30 | 60 | 100 | 10 | 80 | 0 | 40 |  | 80 | 80 | 0 | 0 |
| Cc1cc(C)c(N(COC(=O)C(C)(C)C)S(=O)(=O)C(F)(F)F)cc1C(=O)N1CCC(C)CC1 [Compound 353] | 0 | 0 | 10 | 80 |  | 70 |  | 50 | 0 | 0 | 20 | 20 | 10 | 30 |  | 30 | 50 | 20 | 0 |
| Cc1cc(C2CC2)c(NS(=O)(=O)C(F)(F)F)cc1C1=NOC2(CCCC2)C1 [Compound 313] | 0 | 0 | 0 | 40 |  | 30 |  | 0 | 30 | 50 | 0 | 0 | 0 | 0 |  | 0 | 0 | 0 | 0 |
| Cc1c(NS(=O)(=O)C(F)(F)F)cc(C(=O)N2CCC(F)(F)CC2)c(C)c1C [Compound 357] | 0 | 0 | 10 | 90 |  | 100 |  | 20 | 0 | 30 | 0 | 80 | 10 | 90 |  | 70 | 90 | 0 | 0 |
| Cc1c(C(=O)N2C[C@@H](C)O[C@@H](C)C2)cc(N(COC(=O)C(C)(C)C)S(=O)(=O)C(F)(F)F)c(C)c1C [Compound 331] | 0 | 50 | 0 | 70 |  | 90 |  | 80 | 0 | 0 | 0 | 90 | 0 | 0 |  | 50 | 60 | 20 | 0 |
| Cc1cc(C)c(N(COC(=O)C(C)(C)C)S(=O)(=O)C(F)(F)F)cc1C1=NOC2CCCCCC12 (single isomer, unassigned) [Compound 294] | 0 | 0 | 0 | 20 |  | 70 |  | 20 | 40 | 90 | 0 | 30 | 0 | 0 |  | 30 | 60 | 0 | 0 |
| CCC1ON=C(c2cc(N(C(=O)OCC(C)C)S(=O)(=O)C(F)(F)F)c(C)cc2C)C1CC (stereo not drawn) [Compound 345] | 20 | 40 | 40 | 100 |  | 100 |  | 50 | 30 | 80 | 0 | 0 | 10 | 10 |  | 70 | 80 | 30 | 0 |
| Cc1c(NS(=O)(=O)C(F)(F)F)cc(C2=NOC3CCCC23)c(C)c1C (stereo not drawn) [Compound 335] | 0 | 10 | 60 | 100 |  | 80 |  | 0 | 0 | 60 | 20 | 90 | 0 | 60 |  | 10 | 50 | 0 | 0 |
| Cc1c(C(=O)N2CCC(F)(F)CC2)cc(N(COC(=O)C(C)(C)C)S(=O)(=O)C(F)(F)F)c(C)c1C [Compound 360] | 0 | 0 | 0 | 40 |  | 100 |  | 0 | 0 | 30 | 60 | 80 | 0 | 0 |  | 40 | 50 | 0 | 0 |
| COCC1CC(c2cc(N(COC(=O)C(C)(C)C)S(=O)(=O)C(F)(F)F)c(C)cc2C)=NO1 (stereo not drawn) [Compound 338] | 0 | 0 | 10 | 90 |  | 50 |  | 80 | 30 | 30 | 0 | 40 | 10 | 50 |  | 70 | 50 | 10 | 0 |
| CCc1cc(C)c(C2=NOC3(CCCC3)C2)cc1NS(=O)(=O)C(F)(F)F [Compound 311] | 0 | 0 | 0 | 10 |  | 0 |  | 20 | 0 | 60 | 0 | 0 | 0 | 0 |  | 0 | 0 | 0 | 0 |
